Paper PMC4979471 (Cell Death Discovery, 2015)
Read-outs that look alike come from different tables or passages of the source.

What was measured:
Assay in all cases: Kinase selectivity, P33-radiolabeled assay
Format in all cases: biochemical
Details in all cases: 10 μM ATP
CDK9/cyclin K = target: T1, CDK9/cyclin K (Homo sapiens, UniProt P50750)
T1 construct: purchased Reaction Biology Corp
Method in brief: (§1)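 Percent residual kinase activity versus DMSO is reported. Conditions: compound at 10 μM, ATP at 10 μM, n = 2.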

CTK/MATK = target: T2, CTK/MATK (Homo sapiens, UniProt P42679)
T2 construct: purchased Reaction Biology Corp
T2 sequence (P42679 1-507): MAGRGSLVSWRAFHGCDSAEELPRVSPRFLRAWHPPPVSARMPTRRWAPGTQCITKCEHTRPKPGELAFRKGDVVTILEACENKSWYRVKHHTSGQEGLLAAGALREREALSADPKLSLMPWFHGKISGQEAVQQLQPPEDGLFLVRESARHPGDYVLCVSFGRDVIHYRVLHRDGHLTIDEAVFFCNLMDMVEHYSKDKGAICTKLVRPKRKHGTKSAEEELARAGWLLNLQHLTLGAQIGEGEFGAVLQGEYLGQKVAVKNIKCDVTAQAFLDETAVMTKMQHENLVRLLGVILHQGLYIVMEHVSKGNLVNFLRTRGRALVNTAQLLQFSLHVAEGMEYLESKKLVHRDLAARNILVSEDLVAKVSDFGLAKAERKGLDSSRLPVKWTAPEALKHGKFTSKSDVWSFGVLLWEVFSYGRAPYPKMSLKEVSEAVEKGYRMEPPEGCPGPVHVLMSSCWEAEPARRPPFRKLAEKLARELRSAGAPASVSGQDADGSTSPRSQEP
Method in brief: as §1

IKKb/IKBKB = target: T3, IKKb/IKBKB (Homo sapiens, UniProt O14920)
T3 construct: purchased Reaction Biology Corp
T3 sequence (O14920 1-756): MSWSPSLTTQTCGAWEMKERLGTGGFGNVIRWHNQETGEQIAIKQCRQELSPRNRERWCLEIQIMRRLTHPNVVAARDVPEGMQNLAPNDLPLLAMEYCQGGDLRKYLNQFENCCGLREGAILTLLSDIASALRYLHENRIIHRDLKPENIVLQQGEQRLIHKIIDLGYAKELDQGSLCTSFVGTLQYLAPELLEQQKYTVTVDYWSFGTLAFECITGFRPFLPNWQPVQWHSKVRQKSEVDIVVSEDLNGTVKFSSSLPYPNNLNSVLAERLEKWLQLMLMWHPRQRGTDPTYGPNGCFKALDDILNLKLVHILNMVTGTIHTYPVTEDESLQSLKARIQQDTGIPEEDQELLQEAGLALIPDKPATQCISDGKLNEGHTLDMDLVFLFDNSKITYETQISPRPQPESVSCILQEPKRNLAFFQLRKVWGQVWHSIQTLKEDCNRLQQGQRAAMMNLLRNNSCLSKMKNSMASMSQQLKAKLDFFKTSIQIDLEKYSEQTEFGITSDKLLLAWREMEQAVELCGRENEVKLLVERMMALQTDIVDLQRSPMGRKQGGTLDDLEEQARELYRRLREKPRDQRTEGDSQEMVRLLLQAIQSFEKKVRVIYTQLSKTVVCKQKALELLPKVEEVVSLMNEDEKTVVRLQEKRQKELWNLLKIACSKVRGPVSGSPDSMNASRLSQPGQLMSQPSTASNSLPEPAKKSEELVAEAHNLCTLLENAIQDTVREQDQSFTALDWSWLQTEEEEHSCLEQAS
Method in brief: as §1

JAK1 = target: T4, JAK1 (Homo sapiens, UniProt P23458)
T4 construct: purchased Reaction Biology Corp
Method in brief: as §1

P38g = target: T5, P38g (Homo sapiens, UniProt P53778)
T5 construct: purchased Reaction Biology Corp
T5 sequence (P53778 1-367): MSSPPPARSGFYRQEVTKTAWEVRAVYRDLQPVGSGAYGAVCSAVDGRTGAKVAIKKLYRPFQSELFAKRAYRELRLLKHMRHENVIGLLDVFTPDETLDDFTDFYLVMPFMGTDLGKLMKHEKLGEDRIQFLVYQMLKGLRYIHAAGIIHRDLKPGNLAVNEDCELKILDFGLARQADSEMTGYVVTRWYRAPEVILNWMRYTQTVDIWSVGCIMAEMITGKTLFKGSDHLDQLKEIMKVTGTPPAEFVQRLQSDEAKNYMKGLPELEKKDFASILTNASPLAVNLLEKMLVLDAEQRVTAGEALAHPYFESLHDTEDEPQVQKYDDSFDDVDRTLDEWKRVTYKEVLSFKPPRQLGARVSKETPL
Method in brief: as §1

PAK3 = target: T6, PAK3 (Homo sapiens, UniProt O75914)
T6 construct: purchased Reaction Biology Corp
Method in brief: as §1

PKAcg = target: T7, PKAcg (Homo sapiens, UniProt P22612)
T7 construct: purchased Reaction Biology Corp
Method in brief: as §1

RSK2 = target: T8, RSK2 (Homo sapiens, UniProt P51812)
T8 construct: purchased Reaction Biology Corp
Method in brief: as §1

STK38L/NDR2 = target: T9, STK38L/NDR2 (Homo sapiens, UniProt Q9Y2H1)
T9 construct: purchased Reaction Biology Corp
Method in brief: as §1

TTBK2 = target: T10, TTBK2 (Homo sapiens, UniProt Q6IQ55)
T10 construct: purchased Reaction Biology Corp
Method in brief: as §1

[1] = read-out: % Enzyme Activity (relative to DMSO controls) AVG
[2] = read-out: % Enzyme Activity (relative to DMSO controls) Data 1
[3] = read-out: % Enzyme Activity (relative to DMSO controls) Data 2

T9 sequence (Q9Y2H1 whole entry): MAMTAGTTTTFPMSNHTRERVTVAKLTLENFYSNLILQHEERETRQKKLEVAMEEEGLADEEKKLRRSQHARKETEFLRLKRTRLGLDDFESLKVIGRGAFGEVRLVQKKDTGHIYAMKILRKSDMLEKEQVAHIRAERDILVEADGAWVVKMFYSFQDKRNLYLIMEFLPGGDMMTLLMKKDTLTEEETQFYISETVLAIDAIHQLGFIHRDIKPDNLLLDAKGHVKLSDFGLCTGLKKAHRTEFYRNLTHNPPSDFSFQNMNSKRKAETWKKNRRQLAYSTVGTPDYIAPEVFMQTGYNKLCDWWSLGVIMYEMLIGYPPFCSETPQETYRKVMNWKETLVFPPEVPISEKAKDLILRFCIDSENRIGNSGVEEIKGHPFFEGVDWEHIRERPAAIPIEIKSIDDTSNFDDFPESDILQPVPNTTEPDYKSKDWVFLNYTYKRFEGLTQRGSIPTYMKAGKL
T6 sequence (O75914 whole entry): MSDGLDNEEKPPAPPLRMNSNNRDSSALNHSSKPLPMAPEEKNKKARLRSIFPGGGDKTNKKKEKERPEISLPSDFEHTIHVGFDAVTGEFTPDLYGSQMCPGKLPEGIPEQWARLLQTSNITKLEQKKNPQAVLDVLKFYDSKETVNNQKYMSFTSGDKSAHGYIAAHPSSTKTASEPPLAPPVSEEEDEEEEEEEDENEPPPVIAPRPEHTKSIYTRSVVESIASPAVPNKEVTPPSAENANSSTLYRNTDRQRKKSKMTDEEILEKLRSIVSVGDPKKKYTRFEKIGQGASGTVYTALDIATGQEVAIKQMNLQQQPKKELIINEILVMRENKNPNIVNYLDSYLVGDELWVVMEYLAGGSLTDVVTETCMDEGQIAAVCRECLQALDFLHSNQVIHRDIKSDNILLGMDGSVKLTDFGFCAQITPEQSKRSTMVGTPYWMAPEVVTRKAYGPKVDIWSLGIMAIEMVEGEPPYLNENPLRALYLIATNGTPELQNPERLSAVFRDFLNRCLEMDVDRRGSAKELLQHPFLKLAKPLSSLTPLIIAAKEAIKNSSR
T10 sequence (Q6IQ55 whole entry): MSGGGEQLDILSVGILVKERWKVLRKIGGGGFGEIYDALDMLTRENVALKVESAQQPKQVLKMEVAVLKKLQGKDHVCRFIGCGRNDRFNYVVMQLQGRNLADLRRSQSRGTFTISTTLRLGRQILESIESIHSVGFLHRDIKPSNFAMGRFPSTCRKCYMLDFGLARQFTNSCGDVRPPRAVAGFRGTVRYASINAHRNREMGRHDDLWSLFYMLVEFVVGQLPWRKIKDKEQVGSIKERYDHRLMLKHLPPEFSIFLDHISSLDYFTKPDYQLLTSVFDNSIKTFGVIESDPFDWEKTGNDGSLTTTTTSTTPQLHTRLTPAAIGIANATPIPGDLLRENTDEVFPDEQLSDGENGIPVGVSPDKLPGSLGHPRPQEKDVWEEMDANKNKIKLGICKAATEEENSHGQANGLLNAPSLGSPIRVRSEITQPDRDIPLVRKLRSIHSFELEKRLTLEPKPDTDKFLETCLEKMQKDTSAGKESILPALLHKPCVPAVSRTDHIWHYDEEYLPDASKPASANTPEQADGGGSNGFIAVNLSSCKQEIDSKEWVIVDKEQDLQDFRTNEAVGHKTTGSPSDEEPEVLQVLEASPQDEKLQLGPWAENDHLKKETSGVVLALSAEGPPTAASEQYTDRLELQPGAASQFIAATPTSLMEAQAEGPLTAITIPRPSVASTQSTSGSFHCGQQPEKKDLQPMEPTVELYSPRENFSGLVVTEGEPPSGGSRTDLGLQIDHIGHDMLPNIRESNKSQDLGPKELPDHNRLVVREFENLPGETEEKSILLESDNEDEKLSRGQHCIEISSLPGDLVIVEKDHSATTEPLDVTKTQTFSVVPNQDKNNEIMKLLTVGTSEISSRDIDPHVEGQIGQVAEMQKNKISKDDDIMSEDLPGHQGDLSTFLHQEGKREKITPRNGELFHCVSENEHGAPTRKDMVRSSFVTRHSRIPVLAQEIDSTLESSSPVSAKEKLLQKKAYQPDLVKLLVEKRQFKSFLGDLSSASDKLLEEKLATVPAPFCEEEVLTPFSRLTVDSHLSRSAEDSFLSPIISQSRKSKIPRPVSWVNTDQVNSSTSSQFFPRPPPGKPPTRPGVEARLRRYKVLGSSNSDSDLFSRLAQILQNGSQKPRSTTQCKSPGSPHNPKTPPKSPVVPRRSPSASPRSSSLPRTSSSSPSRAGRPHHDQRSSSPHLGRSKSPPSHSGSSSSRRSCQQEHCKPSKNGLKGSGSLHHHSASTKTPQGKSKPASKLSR
T7 sequence (P22612 whole entry): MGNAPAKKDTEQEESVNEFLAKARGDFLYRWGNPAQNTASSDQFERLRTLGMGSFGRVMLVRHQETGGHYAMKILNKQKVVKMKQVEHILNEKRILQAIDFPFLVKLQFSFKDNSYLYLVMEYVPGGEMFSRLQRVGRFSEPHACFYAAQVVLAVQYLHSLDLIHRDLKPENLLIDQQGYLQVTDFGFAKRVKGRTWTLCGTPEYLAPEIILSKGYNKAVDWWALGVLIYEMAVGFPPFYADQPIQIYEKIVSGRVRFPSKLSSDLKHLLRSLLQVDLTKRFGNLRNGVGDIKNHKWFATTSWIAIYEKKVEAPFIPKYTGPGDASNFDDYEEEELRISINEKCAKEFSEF
T4 sequence (P23458 whole entry): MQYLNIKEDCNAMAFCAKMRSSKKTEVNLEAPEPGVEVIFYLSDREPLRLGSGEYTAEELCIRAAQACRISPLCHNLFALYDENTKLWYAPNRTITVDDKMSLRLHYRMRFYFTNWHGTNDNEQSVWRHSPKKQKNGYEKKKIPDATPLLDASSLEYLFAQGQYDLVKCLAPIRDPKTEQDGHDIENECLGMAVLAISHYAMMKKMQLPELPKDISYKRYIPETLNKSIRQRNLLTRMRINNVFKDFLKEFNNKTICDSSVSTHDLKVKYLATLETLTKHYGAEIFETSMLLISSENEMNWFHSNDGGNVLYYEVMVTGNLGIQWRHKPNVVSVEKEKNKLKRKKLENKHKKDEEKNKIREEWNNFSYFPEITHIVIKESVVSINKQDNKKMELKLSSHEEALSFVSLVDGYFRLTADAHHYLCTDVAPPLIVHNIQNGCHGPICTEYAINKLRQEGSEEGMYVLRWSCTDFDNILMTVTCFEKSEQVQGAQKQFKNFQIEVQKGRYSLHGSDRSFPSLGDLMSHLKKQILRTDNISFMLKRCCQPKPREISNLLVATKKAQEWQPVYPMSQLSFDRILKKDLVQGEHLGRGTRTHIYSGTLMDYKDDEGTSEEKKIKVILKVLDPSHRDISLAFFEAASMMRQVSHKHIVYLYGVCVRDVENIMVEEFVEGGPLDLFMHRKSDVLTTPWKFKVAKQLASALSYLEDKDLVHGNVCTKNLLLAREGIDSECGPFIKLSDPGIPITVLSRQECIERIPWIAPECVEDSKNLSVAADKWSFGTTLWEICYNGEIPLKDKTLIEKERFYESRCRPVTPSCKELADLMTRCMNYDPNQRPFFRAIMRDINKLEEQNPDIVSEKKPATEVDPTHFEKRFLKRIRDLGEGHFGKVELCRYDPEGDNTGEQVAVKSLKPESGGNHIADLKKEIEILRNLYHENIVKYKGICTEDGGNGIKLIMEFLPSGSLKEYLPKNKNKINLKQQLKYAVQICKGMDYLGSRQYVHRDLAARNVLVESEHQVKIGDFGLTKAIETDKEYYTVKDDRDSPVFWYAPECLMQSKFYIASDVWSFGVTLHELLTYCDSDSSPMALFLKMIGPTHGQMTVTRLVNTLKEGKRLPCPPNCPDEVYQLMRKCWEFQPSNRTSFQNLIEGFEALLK
T1 sequence (P50750 whole entry): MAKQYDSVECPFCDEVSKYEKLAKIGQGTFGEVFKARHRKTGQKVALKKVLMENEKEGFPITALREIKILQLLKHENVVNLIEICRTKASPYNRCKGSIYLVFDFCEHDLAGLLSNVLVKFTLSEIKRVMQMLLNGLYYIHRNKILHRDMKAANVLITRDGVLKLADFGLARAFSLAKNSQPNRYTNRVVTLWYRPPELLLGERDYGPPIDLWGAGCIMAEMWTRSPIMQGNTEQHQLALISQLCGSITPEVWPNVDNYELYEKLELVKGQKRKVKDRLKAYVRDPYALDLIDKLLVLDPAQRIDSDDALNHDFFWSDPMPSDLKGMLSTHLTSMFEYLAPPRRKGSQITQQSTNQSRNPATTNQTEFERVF
T1 sequence (O75909 whole entry partner): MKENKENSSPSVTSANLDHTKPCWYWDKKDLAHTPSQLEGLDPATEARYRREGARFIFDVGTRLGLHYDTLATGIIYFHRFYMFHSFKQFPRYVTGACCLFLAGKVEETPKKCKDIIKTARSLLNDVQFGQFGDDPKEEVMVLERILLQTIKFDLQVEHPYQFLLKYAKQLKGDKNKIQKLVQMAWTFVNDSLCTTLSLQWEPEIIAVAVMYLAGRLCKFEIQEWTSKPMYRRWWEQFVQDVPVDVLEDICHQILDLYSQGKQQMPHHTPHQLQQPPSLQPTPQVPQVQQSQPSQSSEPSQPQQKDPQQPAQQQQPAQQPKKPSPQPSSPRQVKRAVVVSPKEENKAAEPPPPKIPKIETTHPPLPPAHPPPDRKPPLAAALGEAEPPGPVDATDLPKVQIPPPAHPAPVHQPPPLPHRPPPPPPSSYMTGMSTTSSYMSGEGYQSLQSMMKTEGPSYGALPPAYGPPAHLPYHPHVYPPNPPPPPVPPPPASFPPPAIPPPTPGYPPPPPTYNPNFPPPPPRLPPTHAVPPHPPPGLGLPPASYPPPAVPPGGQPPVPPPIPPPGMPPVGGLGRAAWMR

## CC(C)(C)C(=O)N1N=CC[C@H]1c1ccccc1 [GSK′963]
CDK9/cyclin K; [1]
  remaining activity at 10 µM: 114%
CDK9/cyclin K; [2]
  remaining activity at 10 µM: 112%
CDK9/cyclin K; [3]
  remaining activity at 10 µM: 116%
CTK/MATK; [1]
  remaining activity at 10 µM: 93%
CTK/MATK; [2]
  remaining activity at 10 µM: 91.5%
CTK/MATK; [3]
  remaining activity at 10 µM: 94.5%
IKKb/IKBKB; [1]
  remaining activity at 10 µM: 111%
IKKb/IKBKB; [2]
  remaining activity at 10 µM: 110%
IKKb/IKBKB; [3]
  remaining activity at 10 µM: 112%
JAK1; [1]
  remaining activity at 10 µM: 98.8%
JAK1; [2]
  remaining activity at 10 µM: 97.9%
JAK1; [3]
  remaining activity at 10 µM: 99.8%
P38g; [1]
  remaining activity at 10 µM: 101%
P38g; [2]
  remaining activity at 10 µM: 103%
P38g; [3]
  remaining activity at 10 µM: 98.7%
PAK3; [1]
  remaining activity at 10 µM: 103%
PAK3; [2]
  remaining activity at 10 µM: 102%
PAK3; [3]
  remaining activity at 10 µM: 105%
PKAcg; [1]
  remaining activity at 10 µM: 122%
PKAcg; [2]
  remaining activity at 10 µM: 123%
PKAcg; [3]
  remaining activity at 10 µM: 122%
RSK2; [1]
  remaining activity at 10 µM: 106%
RSK2; [2]
  remaining activity at 10 µM: 107%
RSK2; [3]
  remaining activity at 10 µM: 106%
STK38L/NDR2; [1]
  remaining activity at 10 µM: 99.8%
STK38L/NDR2; [2]
  remaining activity at 10 µM: 101%
STK38L/NDR2; [3]
  remaining activity at 10 µM: 98.1%
TTBK2; [1]
  remaining activity at 10 µM: 97.8%
TTBK2; [2]
  remaining activity at 10 µM: 98.5%
TTBK2; [3]
  remaining activity at 10 µM: 97.1%
